Data from patent publication US20210254272A1, “TEXTILES HAVING ANTIMICROBIAL PROPERTIES” (Livinguard AG, priority 2015, published 2021).

Assay: Leaching test: 100 g fabric soaked in 10 liters stagnant distilled water, 3 days (72 hours)
Assay type: physicochemical
Details: for Leaching of active ingredients / Leaching Test-Leaching of active ingredients: pad process; for Leaching of active ingredients: cured 180° C. 2 min; for Leaching Test-Leaching of active ingredients: 2 min
Procedure: (§1) The test procedure for leaching was as follows: 100 g (grams) of fabric as well as control fabrics were soaked in 10 liters of stagnant distilled water in a closed wide mouth jar. After 3 days (72 hours), the water samples were tested for leached substances as per standard analytical methods.
as §1, with “methods. A weight of 100 g fabric was chosen because in the preferred embodiment of the water filter as described further below, each filter comprises a strip of fabric with 210 g/m^2, 3 meters long and 0.16 meters wide, which corresponds to 100 g of fabric.” for “methods.”

Silver
Leaching of active ingredients (in ppm) (exhaust 80° C., 60 min, dosage 1% o.w.f (test up to 5% o.w.f)): 3.5 ppm
Leaching of active ingredients (in ppm) (exhaust 80° C., 60 min, dosage 2% o.w.f): 19 ppm
Leaching of active ingredients (in ppm) (exhaust 80° C., 60 min, dosage 3% o.w.f): 36 ppm
Leaching of active ingredients (in ppm) (exhaust 80° C., 60 min, dosage 4% o.w.f): 41 ppm
Leaching of active ingredients (in ppm) (exhaust 80° C., 60 min, dosage 5% o.w.f): 69 ppm
Leaching of active ingredients (in ppm) (exhaust 80 ° C., solution dosage 1% o.w.f, process time 10 min): 50 ppm
Leaching of active ingredients (in ppm) (exhaust 80 ° C., solution dosage 1% o.w.f, process time 20 min): 37 ppm
Leaching of active ingredients (in ppm) (exhaust 80 ° C., solution dosage 1% o.w.f, process time 30 min): 28 ppm
Leaching of active ingredients (in ppm) (exhaust 80 ° C., solution dosage 1% o.w.f, process time 40 min): 22 ppm
Leaching of active ingredients (in ppm) (exhaust 80 ° C., solution dosage 1% o.w.f, process time 50 min): 19 ppm
Leaching of active ingredients (in ppm) (exhaust 80 ° C., solution dosage 1% o.w.f, process time 55 min): 8 ppm
Leaching of active ingredients (in ppm) (exhaust 80 ° C., solution dosage 1% o.w.f, process time 60 min): 4 ppm
Leaching of active ingredients (in ppm) (exhaust 80 ° C., solution dosage 1% o.w.f, process time 70 min): 4 ppm
Leaching of active ingredients (in ppm) (exhaust 80 ° C., solution dosage 1% o.w.f, process time 80 min): 3 ppm
Leaching of active ingredients (in ppm) (exhaust 80 ° C., solution dosage 1% o.w.f, process time 90 min): 8 ppm
limit on the quantity of the agent that can be adhered to the textile in a non-leaching or substantially non-leaching manner (from Experimental examples I.1 and I.4): about 0.01 % o.w.f.
Leaching of active ingredients (mixture 1 gm/lit each): 12 ppm
Leaching of active ingredients (mixture 1 gm/lit each, after Washing): 0.4 ppm
Leaching of active ingredients (mixture 5 gm/lit each): 28 ppm
Leaching of active ingredients (mixture 5 gm/lit each, after Washing): 0.6 ppm
Leaching of active ingredients (mixture 10 gm/lit each): 38 ppm
Leaching of active ingredients (mixture 10 gm/lit each, after Washing): 1.0 ppm
Leaching Test-Leaching of active ingredients (single agent 5 gm/lit, curing 120° C.): 9 ppm
Leaching Test-Leaching of active ingredients (single agent 5 gm/lit, curing 140° C.): 5 ppm
Leaching Test-Leaching of active ingredients (single agent 5 gm/lit, curing 150° C.): 3 ppm
Leaching Test-Leaching of active ingredients (single agent 5 gm/lit, curing 160° C.): 2 ppm
Leaching Test-Leaching of active ingredients (single agent 5 gm/lit, curing 180° C.): 1 ppm
Leaching Test-Leaching of active ingredients (single agent 10 gm/lit, curing 120° C.): 16 ppm
Leaching Test-Leaching of active ingredients (single agent 10 gm/lit, curing 140° C.): 15 ppm
Leaching Test-Leaching of active ingredients (single agent 10 gm/lit, curing 150° C.): 12 ppm
Leaching Test-Leaching of active ingredients (single agent 10 gm/lit, curing 160° C.): 9 ppm
Leaching Test-Leaching of active ingredients (single agent 10 gm/lit, curing 180° C.): 2 ppm
Leaching of active ingredient (in ppm) (solution dosage 0.10% o.w.f, exhaust temperature 40° C., process time 60 min): 0 ppm
Leaching of active ingredient (in ppm) (solution dosage 0.10% o.w.f, exhaust temperature 60° C., process time 60 min): 0 ppm
Leaching of active ingredient (in ppm) (solution dosage 0.10% o.w.f, exhaust temperature 65° C., process time 60 min): 0 ppm
Leaching of active ingredient (in ppm) (solution dosage 0.10% o.w.f, exhaust temperature 70° C., process time 60 min): 0 ppm
Leaching of active ingredient (in ppm) (solution dosage 0.10% o.w.f, exhaust temperature 75° C., process time 60 min): 0 ppm
Leaching of active ingredient (in ppm) (solution dosage 0.10% o.w.f, exhaust temperature 80° C., process time 60 min): 0 ppm
Leaching of active ingredient (in ppm) (solution dosage 0.10% o.w.f, exhaust temperature 85° C., process time 60 min): 2 ppm
Leaching of active ingredient (in ppm) (solution dosage 0.10% o.w.f, exhaust temperature 90° C., process time 60 min): 2 ppm
Leaching of active ingredient (in ppm) (solution dosage 0.10% o.w.f, exhaust temperature 95° C., process time 60 min): 2 ppm
Leaching of active ingredient (in ppm) (solution dosage 0.20% o.w.f, exhaust temperature 40° C., process time 60 min): 0 ppm
Leaching of active ingredient (in ppm) (solution dosage 0.20% o.w.f, exhaust temperature 60° C., process time 60 min): 0 ppm
Leaching of active ingredient (in ppm) (solution dosage 0.20% o.w.f, exhaust temperature 65° C., process time 60 min): 0 ppm
Leaching of active ingredient (in ppm) (solution dosage 0.20% o.w.f, exhaust temperature 70° C., process time 60 min): 0 ppm
Leaching of active ingredient (in ppm) (solution dosage 0.20% o.w.f, exhaust temperature 75° C., process time 60 min): 0 ppm
Leaching of active ingredient (in ppm) (solution dosage 0.20% o.w.f, exhaust temperature 80° C., process time 60 min): 0 ppm
Leaching of active ingredient (in ppm) (solution dosage 0.20% o.w.f, exhaust temperature 85° C., process time 60 min): 4 ppm
Leaching of active ingredient (in ppm) (solution dosage 0.20% o.w.f, exhaust temperature 90° C., process time 60 min): 4 ppm
Leaching of active ingredient (in ppm) (solution dosage 0.20% o.w.f, exhaust temperature 95° C., process time 60 min): 4 ppm
Leaching of active ingredient (in ppm) (solution dosage 0.50% o.w.f, exhaust temperature 40° C., process time 60 min): 0 ppm
Leaching of active ingredient (in ppm) (solution dosage 0.50% o.w.f, exhaust temperature 60° C., process time 60 min): 3 ppm
Leaching of active ingredient (in ppm) (solution dosage 0.50% o.w.f, exhaust temperature 65° C., process time 60 min): 2 ppm
Leaching of active ingredient (in ppm) (solution dosage 0.50% o.w.f, exhaust temperature 70° C., process time 60 min): 1 ppm
Leaching of active ingredient (in ppm) (solution dosage 0.50% o.w.f, exhaust temperature 75° C., process time 60 min): 1 ppm
Leaching of active ingredient (in ppm) (solution dosage 0.50% o.w.f, exhaust temperature 80° C., process time 60 min): 1 ppm
Leaching of active ingredient (in ppm) (solution dosage 0.50% o.w.f, exhaust temperature 85° C., process time 60 min): 5 ppm
Leaching of active ingredient (in ppm) (solution dosage 0.50% o.w.f, exhaust temperature 90° C., process time 60 min): 7 ppm
Leaching of active ingredient (in ppm) (solution dosage 0.50% o.w.f, exhaust temperature 95° C., process time 60 min): 8 ppm
Leaching of active ingredient (in ppm) (solution dosage 0.80% o.w.f, exhaust temperature 40° C., process time 60 min): 0 ppm
Leaching of active ingredient (in ppm) (solution dosage 0.80% o.w.f, exhaust temperature 60° C., process time 60 min): 4 ppm
Leaching of active ingredient (in ppm) (solution dosage 0.80% o.w.f, exhaust temperature 65° C., process time 60 min): 3 ppm
Leaching of active ingredient (in ppm) (solution dosage 0.80% o.w.f, exhaust temperature 70° C., process time 60 min): 2 ppm
Leaching of active ingredient (in ppm) (solution dosage 0.80% o.w.f, exhaust temperature 75° C., process time 60 min): 3 ppm
Leaching of active ingredient (in ppm) (solution dosage 0.80% o.w.f, exhaust temperature 80° C., process time 60 min): 1 ppm
Leaching of active ingredient (in ppm) (solution dosage 0.80% o.w.f, exhaust temperature 85° C., process time 60 min): 7 ppm
Leaching of active ingredient (in ppm) (solution dosage 0.80% o.w.f, exhaust temperature 90° C., process time 60 min): 7 ppm
Leaching of active ingredient (in ppm) (solution dosage 0.80% o.w.f, exhaust temperature 95° C., process time 60 min): 8 ppm
Leaching of active ingredient (in ppm) (solution dosage 1.00% o.w.f, exhaust temperature 40° C., process time 60 min): 0 ppm
Leaching of active ingredient (in ppm) (solution dosage 1.00% o.w.f, exhaust temperature 60° C., process time 60 min): 7 ppm
Leaching of active ingredient (in ppm) (solution dosage 1.00% o.w.f, exhaust temperature 65° C., process time 60 min): 7 ppm
Leaching of active ingredient (in ppm) (solution dosage 1.00% o.w.f, exhaust temperature 70° C., process time 60 min): 3 ppm
Leaching of active ingredient (in ppm) (solution dosage 1.00% o.w.f, exhaust temperature 75° C., process time 60 min): 4 ppm
Leaching of active ingredient (in ppm) (solution dosage 1.00% o.w.f, exhaust temperature 80° C., process time 60 min): 1 ppm
Leaching of active ingredient (in ppm) (solution dosage 1.00% o.w.f, exhaust temperature 85° C., process time 60 min): 8 ppm
Leaching of active ingredient (in ppm) (solution dosage 1.00% o.w.f, exhaust temperature 90° C., process time 60 min): 9 ppm
Leaching of active ingredient (in ppm) (solution dosage 1.00% o.w.f, exhaust temperature 95° C., process time 60 min): 10 ppm
